Experimental data as given in ChEMBL document CHEMBL1201862, “PubChem BioAssay data set” (2004).
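1) Cells in 96-well plates. 2) Compound, 48 h, 5 concentrations. 3) Linear interpolation between surrounding doses. 4) Unreached endpoint = highest concentration. The concentration for 50% growth inhibition is given as GI50.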 Calls of active or inactive are those of the source. No stated cut-off is given here; in the data, active = GI50 up to about 1.1 µM and inactive = higher.

What was measured:
Assay in all cases: NCI anticancer screen, dose series, 48 h
M14 = test system: M14
SF-268 = test system: SF-268
NCI-H226 = test system: NCI-H226
HT-29 = test system: HT-29
SK-MEL-28 = test system: SK-MEL-28
DLD-1 = test system: DLD-1
K562 = test system: K562
UACC-62 = test system: UACC-62
COLO 205 = test system: COLO 205
M19-MEL = test system: M19-MEL
A498 = test system: A498
SNB-75 = test system: SNB-75
SW-620 = test system: SW-620
HOP-62 = test system: HOP-62
OVCAR-8 = test system: OVCAR-8
SF-539 = test system: SF-539
SR = test system: SR
HOP-92 = test system: HOP-92
TK-10 = test system: TK-10
DMS-114 = test system: DMS-114
OVCAR-3 = test system: OVCAR-3
SN12C = test system: SN12C
HCT-116 = test system: HCT-116
HL-60 = test system: HL-60
HOP-18 = test system: HOP-18
LXFL 529 = test system: LXFL 529
KM12 = test system: KM12
ACHN = test system: ACHN
U-251 = test system: U-251
MOLT-4 = test system: MOLT-4
NCI-H23 = test system: NCI-H23
LOX IMVI = test system: LOX IMVI
SK-MEL-2 = test system: SK-MEL-2
RPMI-8226 = test system: RPMI-8226
NCI-H460 = test system: NCI-H460
Malme-3M = test system: Malme-3M
KM-20L2 = test system: KM-20L2
SNB-78 = test system: SNB-78
A549 = test system: A549
SK-MEL-5 = test system: SK-MEL-5
UO-31 = test system: UO-31
UACC-257 = test system: UACC-257
NCI-H522 = test system: NCI-H522
IGROV-1 = test system: IGROV-1
786-0 = test system: 786-0
SK-OV-3 = test system: SK-OV-3
SF-295 = test system: SF-295
RXF 393 = test system: RXF 393
XF498 = test system: XF498
OVCAR-4 = test system: OVCAR-4
CCRF-CEM = test system: CCRF-CEM
SNB-19 = test system: SNB-19
CAKI-1 = test system: CAKI-1
OVCAR-5 = test system: OVCAR-5
DMS-273 = test system: DMS-273
EKVX = test system: EKVX
HCC 2998 = test system: HCC 2998
HCT-15 = test system: HCT-15

**Q.** With `c1ccc2c(c1)[Se]c1ccccc1[Se]2` as the compound, how does the GI50 (M14) read?
**A.** > 100 µM (inactive)

**Q.** What about the GI50 (SF-268) of the same compound?
**A.** > 100 µM (inactive)

**Q.** And the GI50 (NCI-H226)?
**A.** 44.1 µM (inactive)

**Q.** And the GI50 (HT-29)?
**A.** > 100 µM (inactive)

**Q.** And the GI50 (SK-MEL-28)?
**A.** > 100 µM (inactive)

**Q.** What about the GI50 (DLD-1) of the same compound?
**A.** 53.8 µM (inactive)

**Q.** What about the GI50 (K562) of the same compound?
**A.** > 100 µM (inactive)

**Q.** And the GI50 (UACC-62)?
**A.** > 100 µM (inactive)

**Q.** What about the GI50 (COLO 205) of the same compound?
**A.** > 100 µM (inactive)

**Q.** What about the GI50 (M19-MEL) of the same compound?
**A.** > 100 µM (inactive)

**Q.** And the GI50 (A498)?
**A.** > 100 µM (inactive)

**Q.** What about the GI50 (SNB-75) of the same compound?
**A.** 21.2 µM (inactive)

**Q.** And the GI50 (SW-620)?
**A.** > 100 µM (inactive)

**Q.** And the GI50 (HOP-62)?
**A.** > 100 µM (inactive)

**Q.** What about the GI50 (OVCAR-8) of the same compound?
**A.** > 100 µM (inactive)

**Q.** What about the GI50 (SF-539) of the same compound?
**A.** 44.3 µM (inactive)

**Q.** What about the GI50 (SR) of the same compound?
**A.** 85.3 µM (inactive)

**Q.** And the GI50 (HOP-92)?
**A.** 25.8 µM (inactive)

**Q.** What about the GI50 (TK-10) of the same compound?
**A.** 78.5 µM (inactive)

**Q.** And the GI50 (DMS-114)?
**A.** 67 µM (inactive)

**Q.** What about the GI50 (OVCAR-3) of the same compound?
**A.** > 100 µM (inactive)

**Q.** What about the GI50 (SN12C) of the same compound?
**A.** > 100 µM (inactive)

**Q.** What about the GI50 (HCT-116) of the same compound?
**A.** 28.1 µM (inactive)

**Q.** And the GI50 (HL-60)?
**A.** 27.1 µM (inactive)

**Q.** What about the GI50 (HOP-18) of the same compound?
**A.** 4.92 µM (inactive)

**Q.** What about the GI50 (LXFL 529) of the same compound?
**A.** 61.4 µM (inactive)

**Q.** What about the GI50 (KM12) of the same compound?
**A.** > 100 µM (inactive)

**Q.** What about the GI50 (ACHN) of the same compound?
**A.** > 100 µM (inactive)

**Q.** And the GI50 (U-251)?
**A.** 37.5 µM (inactive)

**Q.** What about the GI50 (MOLT-4) of the same compound?
**A.** 77.6 µM (inactive)

**Q.** What about the GI50 (NCI-H23) of the same compound?
**A.** 63.5 µM (inactive)

**Q.** What about the GI50 (LOX IMVI) of the same compound?
**A.** > 100 µM (inactive)

**Q.** And the GI50 (SK-MEL-2)?
**A.** > 100 µM (inactive)

**Q.** What about the GI50 (RPMI-8226) of the same compound?
**A.** > 100 µM (inactive)

**Q.** What about the GI50 (NCI-H460) of the same compound?
**A.** 38.3 µM (inactive)

**Q.** And the GI50 (Malme-3M)?
**A.** > 100 µM (inactive)

**Q.** And the GI50 (KM-20L2)?
**A.** > 100 µM (inactive)

**Q.** What about the GI50 (SNB-78) of the same compound?
**A.** 30.5 µM (inactive)

**Q.** What about the GI50 (A549) of the same compound?
**A.** 53.6 µM (inactive)

**Q.** What about the GI50 (SK-MEL-5) of the same compound?
**A.** > 100 µM (inactive)

**Q.** And the GI50 (UO-31)?
**A.** 51.6 µM (inactive)

**Q.** And the GI50 (UACC-257)?
**A.** > 100 µM (inactive)

**Q.** What about the GI50 (NCI-H522) of the same compound?
**A.** > 100 µM (inactive)

**Q.** What about the GI50 (IGROV-1) of the same compound?
**A.** 47.6 µM (inactive)

**Q.** And the GI50 (786-0)?
**A.** > 100 µM (inactive)

**Q.** And the GI50 (SK-OV-3)?
**A.** > 100 µM (inactive)

**Q.** And the GI50 (SF-295)?
**A.** 25.6 µM (inactive)

**Q.** What about the GI50 (RXF 393) of the same compound?
**A.** 61.8 µM (inactive)

**Q.** And the GI50 (XF498)?
**A.** > 100 µM (inactive)

**Q.** And the GI50 (OVCAR-4)?
**A.** 23.4 µM (inactive)

**Q.** And the GI50 (CCRF-CEM)?
**A.** 57.8 µM (inactive)

**Q.** What about the GI50 (SNB-19) of the same compound?
**A.** > 100 µM (inactive)

**Q.** And the GI50 (CAKI-1)?
**A.** 67.1 µM (inactive)

**Q.** And the GI50 (OVCAR-5)?
**A.** > 100 µM (inactive)

**Q.** What about the GI50 (DMS-273) of the same compound?
**A.** > 100 µM (inactive)

**Q.** With `O=c1c(Cl)c(Cl)cnn1CCc1ccncc1` as the compound, how does the GI50 (M14) read?
**A.** 16.7 µM (inactive)

**Q.** What about the GI50 (SF-268) of the same compound?
**A.** 20.6 µM (inactive)

**Q.** And the GI50 (NCI-H226)?
**A.** 29.4 µM (inactive)

**Q.** And the GI50 (EKVX)?
**A.** 19.6 µM (inactive)

**Q.** And the GI50 (HT-29)?
**A.** 16.6 µM (inactive)

**Q.** And the GI50 (SK-MEL-28)?
**A.** 16.4 µM (inactive)

**Q.** And the GI50 (DLD-1)?
**A.** 14.6 µM (inactive)

**Q.** And the GI50 (K562)?
**A.** 35.3 µM (inactive)

**Q.** And the GI50 (HCC 2998)?
**A.** 14.5 µM (inactive)

**Q.** And the GI50 (UACC-62)?
**A.** 20.8 µM (inactive)

**Q.** And the GI50 (M19-MEL)?
**A.** 15.5 µM (inactive)

**Q.** And the GI50 (A498)?
**A.** 21.6 µM (inactive)

**Q.** What about the GI50 (SNB-75) of the same compound?
**A.** 16.6 µM (inactive)

**Q.** What about the GI50 (SW-620) of the same compound?
**A.** 19.1 µM (inactive)

**Q.** And the GI50 (HOP-62)?
**A.** 18.3 µM (inactive)

**Q.** What about the GI50 (OVCAR-8) of the same compound?
**A.** 22.1 µM (inactive)

**Q.** And the GI50 (SF-539)?
**A.** 21.5 µM (inactive)

**Q.** And the GI50 (SR)?
**A.** 20.8 µM (inactive)

**Q.** And the GI50 (HOP-92)?
**A.** 20.4 µM (inactive)

**Q.** What about the GI50 (TK-10) of the same compound?
**A.** 47.5 µM (inactive)

**Q.** What about the GI50 (DMS-114) of the same compound?
**A.** 14 µM (inactive)

**Q.** What about the GI50 (OVCAR-3) of the same compound?
**A.** 17.6 µM (inactive)

**Q.** What about the GI50 (SN12C) of the same compound?
**A.** 18 µM (inactive)

**Q.** What about the GI50 (HCT-116) of the same compound?
**A.** 16.6 µM (inactive)

**Q.** What about the GI50 (HL-60) of the same compound?
**A.** 21.8 µM (inactive)

**Q.** What about the GI50 (HOP-18) of the same compound?
**A.** 20 µM (inactive)

**Q.** And the GI50 (LXFL 529)?
**A.** 15.8 µM (inactive)

**Q.** And the GI50 (KM12)?
**A.** 12.5 µM (inactive)

**Q.** And the GI50 (ACHN)?
**A.** 19.2 µM (inactive)

**Q.** What about the GI50 (MOLT-4) of the same compound?
**A.** 82.6 µM (inactive)

**Q.** And the GI50 (NCI-H23)?
**A.** 17.3 µM (inactive)

**Q.** And the GI50 (LOX IMVI)?
**A.** 17.8 µM (inactive)

**Q.** What about the GI50 (SK-MEL-2) of the same compound?
**A.** 20.3 µM (inactive)

**Q.** What about the GI50 (RPMI-8226) of the same compound?
**A.** 36.6 µM (inactive)

**Q.** And the GI50 (NCI-H460)?
**A.** 20.1 µM (inactive)

**Q.** And the GI50 (Malme-3M)?
**A.** 22 µM (inactive)

**Q.** What about the GI50 (KM-20L2) of the same compound?
**A.** 18.9 µM (inactive)

**Q.** And the GI50 (SNB-78)?
**A.** 25.1 µM (inactive)

**Q.** What about the GI50 (A549) of the same compound?
**A.** 37.9 µM (inactive)

**Q.** And the GI50 (SK-MEL-5)?
**A.** 16.1 µM (inactive)

**Q.** What about the GI50 (UO-31) of the same compound?
**A.** 20.8 µM (inactive)

**Q.** And the GI50 (HCT-15)?
**A.** 16.4 µM

**Q.** What about the GI50 (UACC-257) of the same compound?
**A.** 17.7 µM (inactive)

**Q.** What about the GI50 (IGROV-1) of the same compound?
**A.** 17.3 µM (inactive)

**Q.** What about the GI50 (786-0) of the same compound?
**A.** 19.6 µM (inactive)

**Q.** And the GI50 (SF-295)?
**A.** 29.5 µM (inactive)

**Q.** What about the GI50 (RXF 393) of the same compound?
**A.** 24.6 µM (inactive)

**Q.** What about the GI50 (XF498) of the same compound?
**A.** 15.5 µM (inactive)

**Q.** What about the GI50 (OVCAR-4) of the same compound?
**A.** 18.6 µM (inactive)

**Q.** And the GI50 (CCRF-CEM)?
**A.** 19.1 µM (inactive)

**Q.** What about the GI50 (SNB-19) of the same compound?
**A.** 15.6 µM (inactive)

**Q.** What about the GI50 (CAKI-1) of the same compound?
**A.** 1.98 µM (inactive)

**Q.** What about the GI50 (OVCAR-5) of the same compound?
**A.** 19.5 µM (inactive)

**Q.** And the GI50 (DMS-273)?
**A.** 18.6 µM (inactive)
